The structures appear in SMILES notation. pIC50: −log10 of the molar value.

The term pIC50 denotes the negative decadic logarithm of the IC50, by convention in mol/L. A high value points to a low IC50.

In experiment [1] the target is hCRTH2 receptor (Homo sapiens (Human), UniProt Q9Y5Y4). Briefly: hCRTH2 receptor membranes radioligand (3H-PGD2) displacement assay. Format: binding. To be noted: 3H-PGD2 radioligand displacement, HEK293-hCRTH2 membranes. In outline:
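HEK293-hCRTH2 membranes, 20 μg/well; 3H-PGD2 added at 2.5 nM; binding buffer 50 mM Tris, 10 mM MnCl2, 1 mM EDTA, pH 7.0; 90 min RT; GF/C filtration, scintillation count. Nonspecific binding: PGD2 at […].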
(In general: Displacement assays read how much labelled ligand stays bound in the presence of the test substance.)

Experiment [2] deals with eosinophils. In words: Eosinophil shape change assay with human plasma. Format: cell-based. Particulars: human plasma (50%), PGD2 100 nM activation, antagonistic activity. An excerpt:
Eosinophil Shape Change Assay with Human Plasma
After obtaining informed consent, blood samples were drawn by venipuncture according to the protocol approved by the ethics committee of Basel, Switzerland. Polymorphonuclear leukocytes (containing eosinophils, basophils and neutrophils) were isolated using the Polymorphprep™ method (Axis-Shield). […] The polymorphonuclear cell fraction was harvested and depleted for erythrocytes by hypotonic saline lysis.
The polymorphonuclear cells were resuspended in assay buffer (1×PBS with Ca^2+/Mg^2+ supplemented with 0.1% BSA, 10 mM HEPES, and 10 mM Glucose, pH 7.4) at 5×10^6 cells/ml and stained with anti-CD49d-APC ((APC=Allophycocyanin) for 1 hour at RT. Test compounds, at various concentrations, were preincubated 10 min in human plasma (anticoagulated with a thrombin inhibitor). Then, human plasma was added to the polymorphonuclear cells to 50% of final assay volume with polymorphonuclear cells at 4×10^6 cells/ml. After incubation for 10 minutes at 37° C., the polymorphonuclear cells were activated for 5 min at 37° C. by addition of PGD2 at 100 nM final concentration. Activation was stopped by addition of 0.5 ml paraformaldehyde (1%).
Immediately after fixation with paraformaldehyde, the samples were analyzed by FACSCanto flow cytometer (BD Biosciences) and target cells were identified by their forward-scatter (FSC) and side-scatter (SSC) characteristics. Eosinophils were identified by the anti-CD49d-APC signal and their characteristic side-scatter (SSC) profile. Shape change responses, indicative of eosinophil activation, were quantified as the percent of cells with an increased forward-scatter.

Chain of hCRTH2 receptor (Q9Y5Y4 whole entry): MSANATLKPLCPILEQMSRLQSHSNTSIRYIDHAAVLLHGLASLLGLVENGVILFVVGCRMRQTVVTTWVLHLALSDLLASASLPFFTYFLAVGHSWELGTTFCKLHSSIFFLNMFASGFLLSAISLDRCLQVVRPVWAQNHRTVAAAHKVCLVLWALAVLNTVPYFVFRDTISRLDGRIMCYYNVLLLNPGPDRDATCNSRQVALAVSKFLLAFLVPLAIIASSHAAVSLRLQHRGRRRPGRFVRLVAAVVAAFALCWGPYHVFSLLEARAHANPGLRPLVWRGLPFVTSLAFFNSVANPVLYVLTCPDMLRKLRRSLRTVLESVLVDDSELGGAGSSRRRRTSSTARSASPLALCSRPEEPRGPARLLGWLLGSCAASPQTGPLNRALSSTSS

For `COc1ccc(CC(=O)O)cc1-c1cc(F)cc2c1CN(C(=O)OCc1ccccc1)CC2` [Example 32, 8-(5-Carboxymethyl-2-methoxy-phenyl)-6-fluoro-3,4-dihydro-1H-isoquinoline-2-carboxylic acid benzyl ester], the pIC50 in experiment [1] was 7.98; in experiment [2] (Homo sapiens, Eosinophil), 6.45.

In the case of `COc1ccc(CC(=O)O)cc1-c1ccc(F)c2c1CN(C(=O)NCc1ccc(F)cc1)CC2` [Example 132, {3-[5-Fluoro-2-(4-fluoro-benzylcarbamoyl)-1,2,3,4-tetrahydro-isoquinolin-8-yl]-4-methoxy-phenyl}-acetic acid], the pIC50 in experiment [1] was 7.82; in experiment [2] (Homo sapiens, Eosinophil), less than 6.00.

With `CCOc1ccc(CC(=O)O)cc1-c1ccc(F)c2c1CN(C(=O)CC1OCCc3ccccc31)CC2` (racemic) [Example 224], the pIC50 in experiment [1] was 8.09; in experiment [2] (Homo sapiens, Eosinophil), 8.00.

For `O=C(O)Cc1ccc(OCCF)c(-c2ccc(F)c3c2CN(C(=O)OCc2ccccc2)CC3)c1` [Example 422, 8-[5-Carboxymethyl-2-(2-fluoro-ethoxy)-phenyl]-5-fluoro-3,4-dihydro-1H-isoquinoline-2-carboxylic acid benzyl ester], the pIC50 in experiment [1] was 8.07; in experiment [2] (Homo sapiens, Eosinophil) it was 8.10.

In the case of `CCOc1ccc(CC(=O)O)cc1-c1ccc(F)c2c1CN(C(=O)CC1CCOc3ccccc31)CC2` (racemic) [Example 226], the negative logarithm of the IC50 (pIC50) in experiment [1] was 7.89; in experiment [2] (Homo sapiens, Eosinophil) it was 7.37.

Regarding `CCOc1ccc(CC(=O)O)cc1-c1ccc(F)c2c1CN(C(=O)CC1CCOc3cc(F)ccc31)CC2` (racemic) [Example 335], the pIC50 in experiment [1] is 9.05; in experiment [2] (Homo sapiens, Eosinophil) it was 7.59.

On to `COc1ccc(CC(=O)O)cc1-c1ccc(F)c2c1CN(C(=O)CC1CCc3ccccc31)CC2` (racemic) [Example 261], for which the pIC50 in experiment [1] was 8.51; in experiment [2] (Homo sapiens, Eosinophil), 7.07.

With `COc1ccc(CC(=O)O)cc1-c1ccc(F)c2c1CN(C(=O)CCc1c(C)[nH]c3ccccc13)CC2` [Example 61, (3-{5-Fluoro-2-[3-(2-methyl-1H-indol-3-yl)-propionyl]-1,2,3,4-tetrahydro-isoquinolin-8-yl}-4-methoxy-phenyl)-acetic acid], the pIC50 was 8.10 in experiment [1] and 7.28 in experiment [2] (Homo sapiens, Eosinophil).

For the compound `COc1ccc(OCC(=O)O)cc1-c1ccc(F)c2c1CN(C(=O)[C@@H]1C[C@H]1c1ccccc1)CC2` [Example 182, {3-[5-Fluoro-2-((1R,2R)-2-phenyl-cyclopropanecarbonyl)-1,2,3,4-tetrahydro-isoquinolin-8-yl]-4-methoxy-phenoxy}-acetic acid], the negative logarithm of the IC50 (pIC50) in experiment [1] was 8.36; in experiment [2] (Homo sapiens, Eosinophil), 7.47.

In the case of `COc1ccc(CC(=O)O)cc1-c1ccc(F)c2c1CN(C(=O)CC1CCOc3ccccc31)CC2` (racemic) [Example 262], the pIC50 was 8.08 in experiment [1] and 7.18 in experiment [2] (Homo sapiens, Eosinophil).

Consider `COc1ccc(CC(=O)O)cc1-c1ccc(F)c2c1CN(C(=O)CC(C)c1ccccn1)CC2` (racemic) [Example 265], for which the pIC50 in experiment [1] is 8.11; in experiment [2] (Homo sapiens, Eosinophil), 7.01.

Take `O=C(O)Cc1cc2c(c(-c3ccc(F)c4c3CN(C(=O)OCc3ccccc3)CC4)c1)OCCO2` [Example 168, 8-(7-Carboxymethyl-2,3-dihydro-benzo[1,4]dioxin-5-yl)-5-fluoro-3,4-dihydro-1H-isoquinoline-2-carboxylic acid benzyl ester]: the pIC50 in experiment [1] is 7.75; in experiment [2] (Homo sapiens, Eosinophil), 6.88.

In turn, `CCOc1ccc(CC(=O)O)cc1-c1ccc(F)c2c1CN(C(=O)CC1COc3ccccc31)CC2` (stereo not shown) [Example 208, {3-[2-(2-2,3-Dihydro-benzofuran-3-yl-acetyl)-5-fluoro-1,2,3,4-tetrahydro-isoquinolin-8-yl]-4-ethoxy-phenyl}-acetic acid] showed a negative logarithm of the IC50 (pIC50) in experiment [2] of 7.38.

For the compound `COc1ccc(CC(=O)O)cc1-c1ccc(F)c2c1CN(C(=O)[C@@H]1C[C@H]1c1cccc(F)c1)CC2` (racemic) [Example 48, (±)-(3-{5-Fluoro-2-[trans-2-(3-fluoro-phenyl)-cyclopropanecarbonyl]-1,2,3,4-tetrahydro-isoquinolin-8-yl}-4-methoxy-phenyl)-acetic acid], the pIC50 in experiment [2] (Homo sapiens, Eosinophil) is 7.38.

`COc1cc(CC(=O)O)ccc1-c1ccc(F)c2c1CN(C(=O)CC1CCOc3ccccc31)CC2` (stereo not shown) [Example 200, {4-[2-(2-Chroman-4-yl-acetyl)-5-fluoro-1,2,3,4-tetrahydro-isoquinolin-8-yl]-3-methoxy-phenyl}-acetic acid] gave a negative-log IC50 (pIC50) in experiment [2] (Homo sapiens, Eosinophil) of 7.30.

In experiment [2], `CCOc1ccc(CC(=O)O)cc1-c1ccc(F)c2c1CN(C(=O)CC1COc3ccccc31)CC2` (stereo not shown) [Example 207, {3-[2-(2-2,3-Dihydro-benzofuran-3-yl-acetyl)-5-fluoro-1,2,3,4-tetrahydro-isoquinolin-8-yl]-4-ethoxy-phenyl}-acetic acid] showed a pIC50 of 7.82.

Take `CCOc1ccc(CC(=O)O)cc1-c1ccc(F)c2c1CN(C(=O)CC1COCc3ccccc31)CC2` (stereo not shown) [Example 210, {4-Ethoxy-3-[5-fluoro-2-(2-isochroman-4-yl-acetyl)-1,2,3,4-tetrahydro-isoquinolin-8-yl]-phenyl}-acetic acid]: the pIC50 in experiment [2] was 7.96.

In experiment [2] (Homo sapiens, Eosinophil), `CCOc1ccc(CC(=O)O)cc1-c1ccc(F)c2c1CN(C(=O)CC1COc3ccccc31)CC2` (racemic) [Example 227] showed a pIC50 of 7.42.

Compound `COc1ccc(CC(=O)O)cc1-c1ccc(F)c2c1CN(C(=O)[C@@H]1C[C@H]1c1cccc(F)c1)CC2` [Example 65, (3-{5-Fluoro-2-[(1R,2R)-2-(3-fluoro-phenyl)-cyclopropanecarbonyl]-1,2,3,4-tetrahydro-isoquinolin-8-yl}-4-methoxy-phenyl)-acetic acid] had a pIC50 in experiment [2] (Homo sapiens, Eosinophil) of 8.00.

Consider `COc1cc(CC(=O)O)ccc1-c1ccc(F)c2c1CN(C(=O)CC1CCOc3ccccc31)CC2` (racemic) [Example 359], for which the pIC50 in experiment [2] (Homo sapiens, Eosinophil) is 7.55.

In experiment [2] (Homo sapiens, Eosinophil), `CCOc1ccc(CC(=O)O)cc1-c1ccc(F)c2c1CN(C(=O)CC1COCc3ccccc31)CC2` (stereo not shown) [Example 209, {4-Ethoxy-3-[5-fluoro-2-(2-isochroman-4-yl-acetyl)-1,2,3,4-tetrahydro-isoquinolin-8-yl]-phenyl}-acetic acid] showed a pIC50 of 7.89.

`COc1ccc(CC(=O)O)cc1-c1ccc(F)c2c1CN(C(=O)CC1CC(C)(C)Oc3ccccc31)CC2` (racemic) [Example 240]: in experiment [2] (Homo sapiens, Eosinophil), the pIC50 was 7.51.

In experiment [2] (Homo sapiens, Eosinophil), `COc1ccc(CC(=O)O)cc1-c1ccc(F)c2c1CN(C(=O)[C@@H]1C[C@H]1c1ccccc1)C2` (racemic) [Example 37, (±)-{3-[7-Fluoro-2-(trans-2-phenyl-cyclopropanecarbonyl)-2,3-dihydro-1H-isoindol-4-yl]-4-methoxy-phenyl}-acetic acid] showed a pIC50 of 6.54. Compared with the last compound, the pIC50 is 0.97 log units lower.

In experiment [2], `COc1cc(CC(=O)O)ccc1-c1ccc(F)c2c1CN(C(=O)CC1CCOc3ccccc31)CC2` (stereo not shown) [Example 201, {4-[2-(2-Chroman-4-yl-acetyl)-5-fluoro-1,2,3,4-tetrahydro-isoquinolin-8-yl]-3-methoxy-phenyl}-acetic acid] showed a pIC50 of 7.51.

Regarding `CCOc1ccc(CC(=O)O)cc1-c1ccc(F)c2c1CN(C(=O)CC1COCc3ccccc31)CC2` (racemic) [Example 228], the pIC50 in experiment [2] (Homo sapiens, Eosinophil) was 8.10.

In experiment [1], `COc1ccc(CC(=O)O)cc1-c1ccc(F)c2c1CN(C(=O)CC1OCc3ccccc31)CC2` (racemic) [Example 362] had a pIC50 of 7.64.

Compound `COc1ccc(CC(=O)O)cc1-c1ccc(F)c2c1CCN(C(=O)CCc1cn(C)c3ccccc13)C2` [Example 105, (3-{8-Fluoro-2-[3-(1-methyl-1H-indol-3-yl)-propionyl]-1,2,3,4-tetrahydro-isoquinolin-5-yl}-4-methoxy-phenyl)-acetic acid] had a pIC50 in experiment [1] of 7.75.

On to `CCOc1ccc(CC(=O)O)cc1-c1ccc(F)c2c1CN(C(=O)C1CCc3cccc(OC)c3C1)CC2` (racemic) [Example 333], for which the pIC50 in experiment [1] is 7.64.

In turn, `CCOc1cc(CC(=O)O)ccc1-c1ccc(F)c2c1CN(C(=O)OCC1CC1)CC2` [Example 391, 8-(4-Carboxymethyl-2-ethoxy-phenyl)-5-fluoro-3,4-dihydro-1H-isoquinoline-2-carboxylic acid cyclopropylmethyl ester] gave a pIC50 in experiment [1] of 8.80.

`CC(C)Oc1cc(CC(=O)O)ccc1-c1ccc(F)c2c1CN(C(=O)C[C@@H](C)c1ccccc1)CC2` [Example 356, {4-[5-Fluoro-2-((R)-3-phenyl-butyryl)-1,2,3,4-tetrahydro-isoquinolin-8-yl]-3-isopropoxy-phenyl}-acetic acid] showed a pIC50 in experiment [1] of 8.68.

`COc1ccc(CC(=O)O)cc1-c1ccc(F)c2c1CN(C(=O)C1Cc3ccccc3C1)CC2` [Example 110, {3-[5-Fluoro-2-(indane-2-carbonyl)-1,2,3,4-tetrahydro-isoquinolin-8-yl]-4-methoxy-phenyl}-acetic acid] had a pIC50 in experiment [1] of 6.76.

Source of the values: US9255090B2, “Heterocyclyl derivatives and their use as prostaglandin D2 receptor modulators” (Actelion Pharmaceuticals Ltd., priority 2012, dated 2016).
